Experimental data reported in PubChem BioAssay (NCI).
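96-well plates; 48 h exposure; 5 concentrations. Endpoints by linear interpolation between flanking doses. Not reached: highest tested concentration assigned. The concentration for 50% growth inhibition is given as GI50. Definition used: TGI = concentration required for complete inhibition of growth.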

Legend:
Experiment in all cases: NCI-60 cell line screen, 48 h
[1] = tested on: LOX IMVI melanoma
[2] = tested on: ACHN renal
[3] = tested on: SNB-75 CNS
[4] = tested on: TK-10 renal
[5] = tested on: CAKI-1 renal
[6] = tested on: A549 NSCLC
[7] = tested on: KM12 colon
[8] = tested on: OVCAR-5 ovarian
[9] = tested on: CCRF-CEM leukemia
[10] = tested on: RPMI-8226 leukemia
[11] = tested on: SK-MEL-2 melanoma
[12] = tested on: HCT-15 colon
[13] = tested on: HT29 colon
[14] = tested on: 786-0 renal
[15] = tested on: OVCAR-8 ovarian
[16] = tested on: HS 578T breast
[17] = tested on: RXF 393 renal
[18] = tested on: SNB-19 CNS
[19] = tested on: NCI/ADR-RES ovarian
[20] = tested on: A498 renal
[21] = tested on: HOP-92 NSCLC
[22] = tested on: NCI-H460 lung
[23] = tested on: SF-295 CNS
[24] = tested on: K-562 leukemia
[25] = tested on: OVCAR-3 ovarian
[26] = tested on: MDA-MB-231 breast
[27] = tested on: COLO 205 colon
[28] = tested on: IGROV1 ovarian
[29] = tested on: NCI-H226 lung
[30] = tested on: MCF7 breast
[31] = tested on: HOP-62 NSCLC
[32] = tested on: NCI-H522 lung
[33] = tested on: HCC-2998 colon
[34] = tested on: SK-MEL-28 melanoma
[35] = tested on: UACC-62 melanoma
[36] = tested on: UO-31 renal
[37] = tested on: MOLT-4 leukemia
[38] = tested on: U251 CNS
[39] = tested on: T-47D breast
[40] = tested on: PC-3 prostate
[41] = tested on: NCI-H23 lung
[42] = tested on: UACC-257 melanoma
[43] = tested on: SF-268 CNS
[44] = tested on: HCT-116 colon
[45] = tested on: EKVX NSCLC
[46] = tested on: SF-539 CNS
[47] = tested on: OVCAR-4 ovarian
[48] = tested on: SK-OV-3 ovarian
[49] = tested on: BT-549 breast
[50] = tested on: M14 melanoma
[51] = tested on: MALME-3M melanoma
[52] = tested on: DU-145 prostate
[53] = tested on: HL-60(TB) leukemia
[54] = tested on: SK-MEL-5 melanoma
[55] = tested on: SW-620 colon
[56] = tested on: MDA-MB-435
[57] = tested on: SR leukemia
[58] = tested on: SN12C renal

Cc1cccc(N(C)C(=O)[C@@H]2[C@H](O)CCN2c2nc(C)cc(C(F)(F)F)c2C#N)c1
GI50 [1]: 3.61 µM
TGI [1]: 27.3 µM
GI50 [2]: 18.3 µM
TGI [2]: 41.9 µM
GI50 [3]: 31.4 µM
TGI [3]: > 100 µM
GI50 [4]: 28.5 µM
TGI [4]: > 100 µM
GI50 [5]: 29.1 µM
TGI [5]: > 100 µM
GI50 [6]: 21.9 µM
TGI [6]: > 100 µM
GI50 [7]: 28.2 µM
TGI [7]: > 100 µM
GI50 [8]: 25.4 µM
TGI [8]: 98.2 µM
GI50 [9]: 25.8 µM
TGI [9]: > 100 µM
GI50 [10]: 16.3 µM
TGI [10]: 41.6 µM
GI50 [11]: 15.9 µM
TGI [11]: 35 µM
GI50 [12]: 27.9 µM
TGI [12]: > 100 µM
GI50 [13]: 15.6 µM
TGI [13]: 49.1 µM
GI50 [14]: 21.6 µM
TGI [14]: 66.9 µM
GI50 [15]: 28.1 µM
TGI [15]: > 100 µM
GI50 [16]: 25.7 µM
TGI [16]: > 100 µM
GI50 [17]: 14.6 µM
TGI [17]: 40.1 µM
GI50 [18]: 31.1 µM
TGI [18]: > 100 µM
GI50 [19]: 22.6 µM
TGI [19]: 89.1 µM
GI50 [20]: 21.9 µM
TGI [20]: 69.8 µM
GI50 [21]: 11 µM
TGI [21]: 53.1 µM
GI50 [22]: 31.8 µM
TGI [22]: > 100 µM
GI50 [23]: 20.3 µM
TGI [23]: 54.2 µM
GI50 [24]: 0.747 µM
TGI [24]: > 100 µM
GI50 [25]: 15.2 µM
TGI [25]: 81.3 µM
GI50 [26]: 19.3 µM
TGI [26]: 46 µM
GI50 [27]: 17.3 µM
TGI [27]: 34 µM
GI50 [28]: 26.5 µM
TGI [28]: 94.5 µM
GI50 [29]: 23.9 µM
TGI [29]: > 100 µM
GI50 [30]: 26.1 µM
TGI [30]: > 100 µM
GI50 [31]: 25.8 µM
TGI [31]: > 100 µM
GI50 [32]: 10.7 µM
TGI [32]: 32 µM
GI50 [33]: 22.7 µM
TGI [33]: 88.1 µM
GI50 [34]: 24.3 µM
TGI [34]: > 100 µM
GI50 [35]: 21.9 µM
TGI [35]: 74.5 µM
GI50 [36]: 14.8 µM
TGI [36]: 29.5 µM
GI50 [37]: 1.98 µM
TGI [37]: 53.8 µM
GI50 [38]: 28.8 µM
TGI [38]: > 100 µM
GI50 [39]: 23.2 µM
TGI [39]: > 100 µM
GI50 [40]: 15.4 µM
TGI [40]: 67.2 µM
GI50 [41]: 31.2 µM
TGI [41]: > 100 µM
GI50 [42]: 28.3 µM
TGI [42]: > 100 µM
GI50 [43]: 26.5 µM
TGI [43]: > 100 µM
GI50 [44]: 15.4 µM
TGI [44]: 29 µM
GI50 [45]: 24.6 µM
TGI [45]: > 100 µM
GI50 [46]: 15.9 µM
TGI [46]: 32.2 µM
GI50 [47]: 18.7 µM
TGI [47]: > 100 µM
GI50 [48]: 24.1 µM
TGI [48]: 81.1 µM
GI50 [49]: 15.6 µM
TGI [49]: 45.2 µM
GI50 [50]: 16.3 µM
TGI [50]: 34.5 µM
GI50 [51]: 19.9 µM
TGI [51]: 59 µM
GI50 [52]: 25.1 µM
TGI [52]: > 100 µM
GI50 [53]: 3.56 µM
TGI [53]: 17.4 µM
GI50 [54]: 15.6 µM
TGI [54]: 30.6 µM
GI50 [55]: 37.8 µM
TGI [55]: > 100 µM
GI50 [56]: 32 µM
TGI [56]: > 100 µM
GI50 [57]: 5.24 µM
TGI [57]: 28.6 µM
GI50 [58]: 17.3 µM
TGI [58]: 50.1 µM

CCN(CC)c1ccc(/C=N/NC(=O)CSc2nc3ccccc3c(=O)n2CCc2ccc(S(N)(=O)=O)cc2)c(O)c1
GI50 [1]: 1.09 µM
TGI [1]: 6.66 µM
GI50 [2]: 1.75 µM
TGI [2]: > 100 µM
GI50 [3]: 3.43 µM
TGI [3]: > 100 µM
GI50 [4]: 5.71 µM
TGI [4]: > 100 µM
GI50 [5]: 1.84 µM
TGI [5]: > 100 µM
GI50 [6]: 3.1 µM
TGI [6]: > 100 µM
GI50 [7]: 1.56 µM
TGI [7]: > 100 µM
GI50 [8]: 4.4 µM
TGI [8]: > 100 µM
GI50 [9]: 0.326 µM
TGI [9]: 4.35 µM
GI50 [10]: 0.417 µM
TGI [10]: 2.44 µM
GI50 [11]: 4.34 µM
TGI [11]: > 100 µM
GI50 [12]: 2.82 µM
TGI [12]: > 100 µM
GI50 [13]: 8.93 µM
TGI [13]: > 100 µM
GI50 [14]: 4.46 µM
TGI [14]: > 100 µM
GI50 [15]: 1.03 µM
TGI [15]: > 100 µM
GI50 [16]: 3.02 µM
TGI [16]: > 100 µM
GI50 [17]: 2.17 µM
TGI [17]: 32.2 µM
GI50 [18]: 3.72 µM
TGI [18]: > 100 µM
GI50 [19]: > 100 µM
TGI [19]: > 100 µM
GI50 [20]: > 100 µM
TGI [20]: > 100 µM
GI50 [21]: 2.15 µM
TGI [21]: 75.2 µM
GI50 [22]: 0.595 µM
TGI [22]: > 100 µM
GI50 [23]: 4.01 µM
TGI [23]: > 100 µM
GI50 [24]: 1.75 µM
TGI [24]: > 100 µM
GI50 [25]: 0.296 µM
TGI [25]: > 100 µM
GI50 [26]: 2.27 µM
TGI [26]: 50.2 µM
GI50 [27]: 3.22 µM
TGI [27]: > 100 µM
GI50 [28]: 1.48 µM
TGI [28]: > 100 µM
GI50 [29]: 1.34 µM
TGI [29]: > 100 µM
GI50 [30]: 1.64 µM
TGI [30]: > 100 µM
GI50 [31]: 1.86 µM
TGI [31]: > 100 µM
GI50 [32]: 3.17 µM
TGI [32]: > 100 µM
GI50 [33]: 2.49 µM
TGI [33]: > 100 µM
GI50 [34]: 2.69 µM
TGI [34]: > 100 µM
GI50 [35]: 1.73 µM
TGI [35]: 6.37 µM
GI50 [36]: 2.86 µM
TGI [36]: > 100 µM
GI50 [37]: 0.653 µM
TGI [37]: > 100 µM
GI50 [38]: 1.44 µM
TGI [38]: > 100 µM
GI50 [39]: 1.01 µM
TGI [39]: > 100 µM
GI50 [40]: 1.83 µM
TGI [40]: > 100 µM
GI50 [41]: 2.99 µM
TGI [41]: > 100 µM
GI50 [42]: 3.25 µM
TGI [42]: 69.1 µM
GI50 [43]: 2.05 µM
TGI [43]: > 100 µM
GI50 [44]: 0.927 µM
TGI [44]: 10.7 µM
GI50 [45]: 1.42 µM
TGI [45]: > 100 µM
GI50 [46]: 2.42 µM
TGI [46]: 66.5 µM
GI50 [47]: 0.549 µM
TGI [47]: > 100 µM
GI50 [48]: 2.72 µM
TGI [48]: > 100 µM
GI50 [49]: 2.21 µM
TGI [49]: > 100 µM
GI50 [50]: 0.754 µM
TGI [50]: 7.2 µM
GI50 [51]: 3.26 µM
TGI [51]: > 100 µM
GI50 [52]: 1.82 µM
TGI [52]: > 100 µM
GI50 [53]: 1.71 µM
TGI [53]: 6.44 µM
GI50 [54]: 2.49 µM
TGI [54]: 14.9 µM
GI50 [55]: 3.12 µM
TGI [55]: > 100 µM
GI50 [56]: 3.89 µM
TGI [56]: > 100 µM
GI50 [57]: 0.445 µM
TGI [57]: > 100 µM
GI50 [58]: 1.86 µM
TGI [58]: > 100 µM
